According to PubChem BioAssay (NCI):
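1) Cells in 96-well plates. 2) Compound, 48 h, 5 concentrations. 3) Linear interpolation between surrounding doses. 4) Unreached endpoint = highest concentration. Definition used: TGI = concentration required for complete inhibition of growth.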

How the values were obtained:
Test in all cases: DTP human tumour cell line panel, 48 h
SW-620 colon = tested on: SW-620 colon
PC-3 prostate = tested on: PC-3 prostate
OVCAR-4 ovarian = tested on: OVCAR-4 ovarian
MDA-MB-435 = tested on: MDA-MB-435
SR leukemia = tested on: SR leukemia
COLO 205 colon = tested on: COLO 205 colon
T-47D breast = tested on: T-47D breast
SN12C renal = tested on: SN12C renal
A498 renal = tested on: A498 renal
MALME-3M melanoma = tested on: MALME-3M melanoma
SNB-19 CNS = tested on: SNB-19 CNS
SK-MEL-5 melanoma = tested on: SK-MEL-5 melanoma
IGROV1 ovarian = tested on: IGROV1 ovarian
SK-OV-3 ovarian = tested on: SK-OV-3 ovarian
DU-145 prostate = tested on: DU-145 prostate
HCT-15 colon = tested on: HCT-15 colon
UACC-62 melanoma = tested on: UACC-62 melanoma
SK-MEL-28 melanoma = tested on: SK-MEL-28 melanoma
BT-549 breast = tested on: BT-549 breast
786-0 renal = tested on: 786-0 renal
MDA-MB-231 breast = tested on: MDA-MB-231 breast
HL-60(TB) leukemia = tested on: HL-60(TB) leukemia
SF-268 CNS = tested on: SF-268 CNS
TK-10 renal = tested on: TK-10 renal
CAKI-1 renal = tested on: CAKI-1 renal
SF-295 CNS = tested on: SF-295 CNS
OVCAR-8 ovarian = tested on: OVCAR-8 ovarian
RXF 393 renal = tested on: RXF 393 renal
KM12 colon = tested on: KM12 colon
HT29 colon = tested on: HT29 colon
ACHN renal = tested on: ACHN renal
A549 NSCLC = tested on: A549 NSCLC
HCC-2998 colon = tested on: HCC-2998 colon
NCI-H460 lung = tested on: NCI-H460 lung
LOX IMVI melanoma = tested on: LOX IMVI melanoma
UACC-257 melanoma = tested on: UACC-257 melanoma
HCT-116 colon = tested on: HCT-116 colon
SK-MEL-2 melanoma = tested on: SK-MEL-2 melanoma
RPMI-8226 leukemia = tested on: RPMI-8226 leukemia
MDA-N = tested on: MDA-N
K-562 leukemia = tested on: K-562 leukemia
NCI/ADR-RES ovarian = tested on: NCI/ADR-RES ovarian
U251 CNS = tested on: U251 CNS
M14 melanoma = tested on: M14 melanoma
SNB-75 CNS = tested on: SNB-75 CNS
UO-31 renal = tested on: UO-31 renal
NCI-H226 lung = tested on: NCI-H226 lung
MCF7 breast = tested on: MCF7 breast
HOP-62 NSCLC = tested on: HOP-62 NSCLC
NCI-H522 lung = tested on: NCI-H522 lung
OVCAR-5 ovarian = tested on: OVCAR-5 ovarian
HOP-92 NSCLC = tested on: HOP-92 NSCLC
NCI-H23 lung = tested on: NCI-H23 lung
OVCAR-3 ovarian = tested on: OVCAR-3 ovarian
EKVX NSCLC = tested on: EKVX NSCLC
HS 578T breast = tested on: HS 578T breast
SF-539 CNS = tested on: SF-539 CNS

CCOC(=O)C(C(N)=O)c1nc2cc([N+](=O)[O-])ccc2nc1/C=C(\O)c1ccccc1 (configuration not stated)
TGI (SW-620 colon): 33.9 µM
TGI (PC-3 prostate): 30.2 µM
TGI (OVCAR-4 ovarian): 34.7 µM
TGI (MDA-MB-435): 31.3 µM
TGI (SR leukemia): 16.5 µM
TGI (COLO 205 colon): 36.5 µM
TGI (T-47D breast): 71.8 µM
TGI (SN12C renal): 64.4 µM
TGI (A498 renal): 33.2 µM
TGI (MALME-3M melanoma): 36.7 µM
TGI (SNB-19 CNS): 44.5 µM
TGI (SK-MEL-5 melanoma): 30.4 µM
TGI (IGROV1 ovarian): 24.8 µM
TGI (SK-OV-3 ovarian): 29 µM
TGI (DU-145 prostate): 31 µM
TGI (HCT-15 colon): 28.4 µM
TGI (UACC-62 melanoma): 34.9 µM
TGI (SK-MEL-28 melanoma): 86.9 µM
TGI (BT-549 breast): 49.9 µM
TGI (786-0 renal): 25.5 µM
TGI (MDA-MB-231 breast): 27 µM
TGI (HL-60(TB) leukemia): 26 µM
TGI (SF-268 CNS): 32.1 µM
TGI (TK-10 renal): 22.9 µM
TGI (CAKI-1 renal): 52 µM
TGI (SF-295 CNS): 42.5 µM
TGI (OVCAR-8 ovarian): 30 µM
TGI (RXF 393 renal): 39.3 µM
TGI (KM12 colon): 26.5 µM
TGI (HT29 colon): 45.3 µM
TGI (ACHN renal): 30.7 µM
TGI (A549 NSCLC): 32.8 µM
TGI (HCC-2998 colon): 21.7 µM
TGI (NCI-H460 lung): 26.1 µM
TGI (LOX IMVI melanoma): 28.7 µM
TGI (UACC-257 melanoma): 40.4 µM
TGI (HCT-116 colon): 32.7 µM
TGI (SK-MEL-2 melanoma): 30.4 µM
TGI (RPMI-8226 leukemia): 27.1 µM
TGI (MDA-N): 40.4 µM
TGI (K-562 leukemia): 13.9 µM
TGI (NCI/ADR-RES ovarian): 34.8 µM
TGI (U251 CNS): 23.4 µM
TGI (M14 melanoma): 34.3 µM
TGI (SNB-75 CNS): 43.1 µM
TGI (UO-31 renal): 36.6 µM
TGI (NCI-H226 lung): > 100 µM
TGI (MCF7 breast): 24.8 µM
TGI (HOP-62 NSCLC): 22.9 µM
TGI (NCI-H522 lung): 29.3 µM
TGI (OVCAR-5 ovarian): 83.3 µM
TGI (HOP-92 NSCLC): 39.1 µM
TGI (NCI-H23 lung): 23.7 µM
TGI (OVCAR-3 ovarian): 22 µM
TGI (EKVX NSCLC): 76.5 µM
TGI (HS 578T breast): 51.2 µM
TGI (SF-539 CNS): 30.2 µM
